These results are taken from PubChem BioAssay (NCI).

In general, GI50 refers to the concentration at which growth is held to half of that of the control. What is called TGI is the concentration at which net growth stops. A low value points to greater sensitivity of the cells.

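Cultured in 96-well plates, cells were exposed to test compound for 48 hours across five concentrations. GI50: concentration for 50% inhibition of growth. TGI: total growth inhibition.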 Some results are limits rather than exact numbers.

Common to all, as to test: DTP human tumour cell line panel, 48 h
Assay [1] concerns K-562 leukemia.
Assay [2] deals with IGROV1 ovarian.
The subject of assay [3] is OVCAR-8 ovarian.
Assay [4] deals with OVCAR-4 ovarian.
For assay [5], the system named is A498 renal.
For assay [6], the system named is HCT-116 colon.
Assay [7] has as its system NCI-H23 lung.
The subject of assay [8] is SW-620 colon.
Assay [9] deals with SF-295 CNS.
For assay [10], the system named is SF-539 CNS.

Regarding `CN(C)C1C(=O)C(C(N)=O)=C(O)C2(O)C(=O)C3=C(O)c4c(O)cccc4C(C)(O)C3CC12.[Cl][Sb]([Cl])[Cl]` (stereo not given), the GI50 in assay [1] is 3.26 µM; in assay [2], 2.96 µM; in assay [3], 3.37 µM; in assay [4], 4.45 µM; in assay [5] it was 2.96 µM; in assay [6], 3.33 µM. In addition, the GI50 in [7] is 3.3 µM; in assay [8], 4.01 µM. Also, the TGI in [1] was found to be 11.2 µM; in assay [2], 8.5 µM; in assay [3], 13.1 µM; in assay [4], 19 µM; in [5] it was 11.4 µM; in [6], 12.2 µM. Moreover, the TGI in assay [7] turned out to be 12.2 µM; in assay [8], 16.5 µM.
Turning to `C/C(=C/CCC(C)[C@@H]1CC[C@]2(C)C3=C(CC[C@@]12C)[C@@]1(C)CCC(=O)C(C)(C)[C@@H]1CC3)C(=O)O` (stereo not given in full), the GI50 is 0.506 µM in assay [9]; 1.19 µM in [2]; 1.42 µM in [3]; 1.27 µM in assay [4]; 1.37 µM in [10]; 0.975 µM in assay [5]. Further, the figures for the GI50 in assay [6], in assay [7] and in assay [8] were 0.858 µM, 0.885 µM and 1.39 µM, respectively. Further, the TGI in assay [9] is 2.02 µM; in [2], 2.6 µM; in assay [3], 3.2 µM; in assay [4], 3.02 µM; in [10] it was 2.93 µM; in [5] it was 2.39 µM. In addition, the total growth inhibition concentration (TGI) in assay [6] worked out at 2.3 µM; in [7] it was 2.37 µM; in [8], 3.41 µM.
As to `CC(C)(C)O/N=C/c1cc(NC(=S)c2ccccc2)ccc1Cl`, the TGI in assay [9] was 51.3 µM; in assay [2] it was 27.1 µM; in assay [3], 35.6 µM; in assay [4], 74.7 µM; in [10], 71.4 µM; in assay [5], 27.6 µM. The TGI in assay [6] was 29.4 µM; in [7], 34.1 µM; in [8], 45.3 µM.
For `O=C(Nc1nc2ccc(S(=O)(=O)Nc3ccc(C4(C(F)(F)F)CC4)cc3)cc2[nH]1)c1cnccn1`, the GI50 in [9] was 0.506 µM; in assay [2], 1.9 µM; in [3], 5.51 µM; in assay [4] it was 4.61 µM; in [10] it was 2.35 µM; in assay [5] it was 2.26 µM. In addition, the GI50 in assay [6] is 1.66 µM; in [7] it was 2.2 µM; in [8], 1.71 µM. For the same compound, the TGI in assay [9] amounted to 10.3 µM; in assay [2], 18.5 µM; in assay [3], 31.8 µM; in [4], 19.7 µM; in assay [10], 10.4 µM; in [5], 8.17 µM. Besides, the TGI in assay [6] came out at 15.9 µM; in assay [7], 15.8 µM; in assay [8], 15.3 µM.
With `CCOC(=O)c1cn(C)c2c(OC)c3ccccc3c(OC)c2c1=O`, the GI50 in [9] was 21.4 µM; in assay [1], 36.4 µM; in [2] it was 52.6 µM; in assay [3], 20.2 µM; in assay [4], 42.1 µM; in [10], 34 µM. The GI50 in [6] was 19.6 µM; in assay [7], 16.1 µM. The TGI in assay [9] was 55.2 µM; in [1] it was over 100 µM; in [2], over 100 µM; in [3], 63.7 µM; in [4], over 100 µM; in assay [10], over 100 µM. The concentration for total growth inhibition (TGI) in assay [6] is 38.5 µM; in assay [7], 37.8 µM.
As for `Cc1ccccc1Nc1cc(O)c2c(=O)cc(-c3ccccc3)oc2c1`, the GI50 in assay [9] is 2.36 µM; in [1] it was 0.469 µM; in assay [2], 3.2 µM; in assay [3], 3.61 µM; in assay [4], 3.38 µM; in [10], 3.1 µM. Also, the GI50 in assay [6] was 3.36 µM; in assay [7], 4.75 µM; in assay [8], 0.734 µM. Further, the concentration for total growth inhibition (TGI) in assay [9], in assay [1], in assay [2], in assay [3], in [4] and in assay [10] was over 100 µM throughout. In addition, the concentration for total growth inhibition (TGI) in assay [6], in [7] and in assay [8] was over 100 µM in each case.
As for `OCC1OC(OC2(CO)OC(CO)C(O)C2O)C(O)C(O)C1O` (stereo not given), the GI50 in [9], in assay [1], in [2], in [3], in assay [4] and in assay [10] was over 100 µM in each case. Also, the GI50 in [6], in assay [7] and in assay [8] was over 100 µM throughout. Besides, the total growth inhibition concentration (TGI) in [9], in [1], in assay [2], in assay [3], in assay [4] and in assay [10] was over 100 µM in each case. Besides, the total growth inhibition concentration (TGI) in assay [6], in assay [7] and in assay [8] was over 100 µM throughout.
Take `C#Cc1cccc(NC(=O)/C=C\C(=O)O)c1`: the TGI in assay [9], in [1], in [3], in [4], in assay [5] and in assay [6] was over 100 µM in each case. For the same compound, the concentration for total growth inhibition (TGI) in [7] and in [8] was over 100 µM in each case.
On to `O=C(O)c1ccccc1NCn1nc(-c2ccccc2O)oc1=S`, for which the GI50 in [9] was over 100 µM; in assay [1], 70.9 µM; in assay [2] it was over 100 µM; in assay [3] it was over 100 µM; in [6], 26 µM; in [7], 40.1 µM. Also, the GI50 in assay [8] was 33.8 µM. Moreover, the TGI is over 100 µM in assay [9]; over 100 µM in assay [1]; over 100 µM in [2]; over 100 µM in assay [3]; 54.1 µM in assay [6]; over 100 µM in assay [7]. In [8], this compound yielded a concentration for total growth inhibition (TGI) of over 100 µM.
